Tests used:
Assay type in all cases: in vivo
dog IgE = test: Subcutaneous administration test using rats: IgG antibody against dog IgE (ELISA); conditions: 50 μg three times, no adjuvant
Experimental: The dog IgE protein (Bethyl Laboratories, Inc.; P115), the mouse IgE protein (BD Biosciences, San Jose, Calif., USA), and the human IgE protein (Athens Research And Technology, Inc.; 16-16-090705-ML) were each prepared at 1 μg/mL, 500 ng/mL, 250 ng/mL, 125 ng/mL, 62.5 ng/mL, 31.2 ng/mL, 15.6 ng/mL, 7.8 ng/mL, 3.9 ng/mL, 1.95 ng/mL, and 0.97 ng/mL in an immobilization buffer (0.05 M carbonate buffer, pH 9.6), then added at a concentration of 100 μL/well to an ELISA plate, and left overnight at 4° C. The immobilization plate was washed once with PBS-T (0.05%). A blocking solution (4× Block Ace, Snow Brand Milk Products Co., Ltd.; UK-B80) was added thereto at a concentration of 200 μL/well. The plate was blocked by incubation at 37° C. for 1.5 hours. The serum was diluted 2000-fold with a diluent (PBS-T:Block Ace=9:1) and used. The serum of an unimmunized rat was similarly diluted and used as a negative control. […] Then, the measurement was performed using a plate reader (Bio-Rad Laboratories, Inc.; model 680) (dual: measurement: 450 nm, control: 570 nm).
This peptide was used in the immunization of rats without the use of an adjuvant, and antibody response to dog IgE was evaluated. […]
Blood was collected every 2 weeks from the administer start date. […] Serum was collected, and an IgG antibody against dog IgE was evaluated by ELISA (FIG. 16). […]

human IgE [1] = test: Test using dog (Part 1): IgG antibody against human IgE (ELISA); conditions: healthy beagles 8 months old, s.c. 1 mg five times at 2-week intervals, no adjuvant
Experimental: The peptide (M4-7-11) was concentration-adjusted to 2 mg/mL with saline, dispensed in an amount of 500 μL, and used as a vaccine. […] The vaccine administration method was subcutaneous administration of 1 mg per dose, which was performed five times at 2-week intervals. Another purpose of this test was to study the frequency of administration of the vaccine.
Dog: 4 healthy beagles (8 months old; 2 males and 2 females) were used.
Vaccine: the M4-7-11 peptide was used alone without being conjugated.
Administration method: 1 mg (500 μl, of 2 mg/mL) per dose was subcutaneously administered five times at 2-week intervals.
Evaluation: serum was collected approximately once per week, and an IgG antibody against human IgE was assayed by ELISA. Since dog IgE nonspecifically reacts with an anti-dog IgG antibody, human IgE having no nonspecific reaction was used in ELISA.
Human IgE (Athens Research And Technology, Inc.; IgE, human Myeloma Plasma) was prepared at 1 μg/mL in an immobilization buffer (0.05 M carbonate buffer, pH 9.6), then added at a concentration of 100 μL/well to an ELISA plate, and left overnight at 4° C. The immobilization plate was washed once with PBS-T (0.05%). […] Then, the measurement was performed using a plate reader (Bio-Rad Laboratories, Inc.; model 680) (dual: measurement: 450 nm, control: 570 nm). […]

human IgE [2] = test: Test using dog (Part 2): IgG antibody against human IgE (ELISA); conditions: healthy adult beagles 24 months old, s.c. 1 mg five times at 2-week intervals
Experimental: Human IgE (Athens Research And Technology, Inc.; IgE, human Myeloma Plasma) was prepared at 1 μg/mL in an immobilization buffer (0.05 M carbonate buffer, pH 9.6), then added at a concentration of 100 μL/well to an ELISA plate, and left overnight at 4° C. The immobilization plate was washed once with PBS-T (0.05%). A blocking solution (4× Block Ace, Snow Brand Milk Products Co., Ltd.; UK-B80) was added thereto at a concentration of 200 μL/well. The plate was blocked by incubation at 37° C. for 1.5 hours. The serum was diluted 1000-fold with a diluent (PBS-T:Block Ace=9:1) and used. The plate was reacted with the serum at 37° C. for 1.5 hours and washed three times with PBS-T (0.05%). An anti-dog IgG antibody (Sheep anti-Dog IgG HRP, Bethyl Laboratories, Inc.; A40-118P) was diluted 2000-fold with a diluent and added thereto as a secondary antibody at a concentration of 100 μL/well. After reaction at 37° C. for 1.5 hours, the plate was washed three times with PBS-T (0.05%). A substrate solution (citrate buffer supplemented with one TMBZ tablet (Sigma-Aldrich Corp.; T-3405) and further supplemented, immediately before use, with 2 μL of 30% H2O2) was added at a concentration of 100 μL/well to the plate and reacted therewith for 10 minutes. […] Then, the measurement was performed using a plate reader (Bio-Rad Laboratories, Inc.; model 680) (dual: measurement: 450 nm, control: 570 nm). […]

KKTSVSASQWYTKHHNNATT (listed as Mus musculus) [M4-7-11]
level of the rat IgG antibody against dog IgE (dog IgE; intravenous): confirmed to elevate | level of the rat IgG antibody against dog IgE (dog IgE; subcutaneous): confirmed to elevate | level of the IgG antibody against IgE (human IgE [1]): confirmed to elevate | level of the IgG antibody against IgE (human IgE [1]; listed as M4-11-17): a rise in the level of the IgG antibody against IgE | level of the IgG antibody against IgE (human IgE [2]): confirmed to elevate
